Consider 31 molecules from patent publication EP4562003B1, “NOVEL 7-SUBSTITUTED INDOLE SULFONAMIDE DERIVATIVES” (F. Hoffmann-La Roche AG, priority 2022, dated 2024).

pIC50: −log10 of the molar value.

This assay deals with human GPR17 short isoform (Homo sapiens, UniProt Q13304). As to the kind of experiment: GPR17 cAMP assay (TR-FRET cAMP quantification, antagonist mode). In kind it is cell-based. The note with it: CHO-K1 cells stably expressing human GPR17 short isoform; EC80 of agonist MDL29,951; forskolin 15µM; IBMX 0.5mM; 30 minutes at room temperature; read-out: hGPR17 cAMP IC50. The procedure, abridged: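 CHO-K1 cells stably expressing untagged human GPR17 short isoform, 10'000 cells/well in HBSS/10mM HEPES/0.1% BSA pH 7.4. Compounds added with EC80 MDL29,951 plus 0.5mM IBMX, then 15µM forskolin; 30 min at room temperature. cAMP read by TR-FRET after 90 min lysis; normalized to reference antagonist maximal activity, sigmoidal fit.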
Chain of human GPR17 short isoform (Q13304 29-367): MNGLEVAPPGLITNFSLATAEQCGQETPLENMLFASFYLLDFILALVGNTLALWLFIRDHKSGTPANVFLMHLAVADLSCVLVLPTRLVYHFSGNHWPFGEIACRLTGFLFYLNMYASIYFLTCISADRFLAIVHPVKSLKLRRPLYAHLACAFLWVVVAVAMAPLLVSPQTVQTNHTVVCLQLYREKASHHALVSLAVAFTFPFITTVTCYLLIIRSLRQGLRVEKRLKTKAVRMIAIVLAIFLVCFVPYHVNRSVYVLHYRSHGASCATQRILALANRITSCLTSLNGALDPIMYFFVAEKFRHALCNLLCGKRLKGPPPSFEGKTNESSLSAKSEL
Background: Cyclic AMP is a second messenger, typically raised through Gs and lowered through Gi signalling.
Take `COc1nc(NS(=O)(=O)c2c[nH]c3c(-c4ccn(C)n4)c(Cl)ccc23)nc(OC)c1OC(F)F` [Example 67, 6-chloro-N-[5-(difluoromethoxy)-4,6-dimethoxy-pyrimidin-2-yl]-7-(1-methylpyrazol-3-yl)-1H-indole-3-sulfonamide]: the negative logarithm of the IC50 (pIC50) was 7.62.
The result for `COc1nc(NS(=O)(=O)c2c[nH]c3c(-c4cnccn4)c(Br)ccc23)nc(OC)c1OC(F)F` [Example 40, 6-bromo-N-[5-(difluoromethoxy)-4,6-dimethoxy-pyrimidin-2-yl]-7-pyrazin-2-yl-1H-indole-3-sulfonamide] reads 8.05; that for `COc1nc(NS(=O)(=O)c2c[nH]c3c(-c4ncccn4)c(Br)ccc23)nc(OC)c1CC(F)F` [Example 35, 6-bromo-N-[5-(2,2-difluoroethyl)-4,6-dimethoxy-pyrimidin-2-yl]-7-(2-pyrimidyl)-1H-indole-3-sulfonamide], 7.47.
For `COc1nc(NS(=O)(=O)c2c[nH]c3c(-c4ncccn4)c(Cl)ccc23)nc(OC)c1CC(F)F` [Example 3, 6-chloro-N-[5-(2,2-difluoroethyl)-4,6-dimethoxy-pyrimidin-2-yl]-7-(2-pyrimidyl)-1H-indole-3-sulfonamide], the pIC50 was 7.34.
Regarding `COc1nc(NS(=O)(=O)c2c[nH]c3c(-c4nccn4C)c(F)ccc23)nc(OC)c1CC(F)F` [Example 10, N-[5-(2,2-difluoroethyl)-4,6-dimethoxy-pyrimidin-2-yl]-6-fluoro-7-(1-methylimidazol-2-yl)-1H-indole-3-sulfonamide], the pIC50 was 7.52.
For `COc1nc(NS(=O)(=O)c2c[nH]c3c(-c4nccnc4C)c(Cl)ccc23)nc(OC)c1OC(F)F` [Example 81, 6-chloro-N-[5-(difluoromethoxy)-4,6-dimethoxy-pyrimidin-2-yl]-7-(3-methylpyrazin-2-yl)-1H-indole-3-sulfonamide], the negative-log IC50 (pIC50) was 7.51.
On to `COc1nc(NS(=O)(=O)c2c[nH]c3c(-c4ccc(C)nn4)c(Cl)ccc23)nc(OC)c1OCC(F)F` [Example 63, 6-chloro-N-[5-(2,2-difluoroethoxy)-4,6-dimethoxy-pyrimidin-2-yl]-7-(6-methylpyridazin-3-yl)-1H-indole-3-sulfonamidemide], for which the pIC50 is 7.35.
In the case of `COc1nc(NS(=O)(=O)c2c[nH]c3c(-c4nccn4C)cccc23)nc(OC)c1CC(F)F` [Example 5, N-[5-(2,2-difluoroethyl)-4,6-dimethoxy-pyrimidin-2-yl]-7-(1-methylimidazol-2-yl)-1H-indole-3-sulfonamide], the pIC50 was 7.59.
`COc1nc(NS(=O)(=O)c2c[nH]c3c(-c4cnn(C)n4)c(Cl)ccc23)nc(OC)c1OCC(F)F` [Example 106, 6-chloro-N-[5-(2,2-difluoroethoxy)-4,6-dimethoxy-pyrimidin-2-yl]-7-(2-methyltriazol-4-yl)-1H-indole-3-sulfonamide]: the negative logarithm of the IC50 (pIC50) was 7.47.
In the case of `COc1nc(NS(=O)(=O)c2c[nH]c3c(-c4cnco4)c(Cl)ccc23)nc(OC)c1OC(F)F` [Example 117, 6-chloro-N-[5-(difluoromethoxy)-4,6-dimethoxy-pyrimidin-2-yl]-7-oxazol-5-yl-1H-indole-3-sulfonamide] it was 6.97; in that of `COc1nc(NS(=O)(=O)c2c[nH]c3c(-c4nccnc4C)c(Cl)ccc23)nc(OC)c1CC(F)F` [Example 74, 6-chloro-N-[5-(2,2-difluoroethyl)-4,6-dimethoxy-pyrimidin-2-yl]-7-(3-methylpyrazin-2-yl)-1H-indole-3-sulfonamide], 7.72; in that of `COc1nc(NS(=O)(=O)c2c[nH]c3c(-c4cccnn4)c(Br)ccc23)nc(OC)c1CC(F)F` [Example 43, 6-bromo-N-[5-(2,2-difluoroethyl)-4,6-dimethoxy-pyrimidin-2-yl]-7-pyridazin-3-yl-1H-indole-3-sulfonamide], 7.49.
Take `COc1nc(NS(=O)(=O)c2c[nH]c3c(-c4cnccn4)cccc23)nc(OC)c1OCC(F)F` [Example 30, N-[5-(2,2-difluoroethoxy)-4,6-dimethoxy-pyrimidin-2-yl]-7-pyrazin-2-yl-1H-indole-3-sulfonamide]: the negative logarithm of the IC50 (pIC50) was 6.89.
Consider `COc1nc(NS(=O)(=O)c2c[nH]c3c(-c4cnc(F)cn4)c(Cl)ccc23)nc(OC)c1OCC(F)F` [Example 42, 6-chloro-N-[5-(2,2-difluoroethoxy)-4,6-dimethoxy-pyrimidin-2-yl]-7-(5-fluoropyrazin-2-yl)-1H-indole-3-sulfonamide], for which the pIC50 was 7.42.
`COc1nc(NS(=O)(=O)c2c[nH]c3c(-c4ccn(C)n4)c(Cl)ccc23)nc(OC)c1OCCF` [Example 68, 6-chloro-N-[5-(2-fluoroethoxy)-4,6-dimethoxy-pyrimidin-2-yl]-7-(1-methylpyrazol-3-yl)-1H-indole-3-sulfonamide]: the negative-log IC50 (pIC50) is 7.74.
Take `COc1nc(NS(=O)(=O)c2c[nH]c3c(-c4cccc(C)n4)c(Cl)ccc23)nc(OC)c1OC(F)F` [Example 94, 6-chloro-N-[5-(difluoromethoxy)-4,6-dimethoxy-pyrimidin-2-yl]-7-(6-methyl-2-pyridyl)-1H-indole-3-sulfonamide]: the negative logarithm of the IC50 (pIC50) was 7.70.
Take `COc1nc(NS(=O)(=O)c2c[nH]c3c(-c4nccnc4Cl)c(Cl)ccc23)nc(OC)c1OCC(F)F` [Example 66, 6-chloro-7-(3-chloropyrazin-2-yl)-N-[5-(2,2-difluoroethoxy)-4,6-dimethoxy-pyrimidin-2-yl]-1H-indole-3-sulfonamide]: the negative logarithm of the IC50 (pIC50) was 7.26.
For `COc1nc(NS(=O)(=O)c2c[nH]c3c(-c4cccnn4)cccc23)nc(OC)c1OCC(F)F` [Example 12, N-[5-(2,2-difluoroethoxy)-4,6-dimethoxy-pyrimidin-2-yl]-7-pyridazin-3-yl-1H-indole-3-sulfonamide], the negative logarithm of the IC50 (pIC50) was 7.07.
Turning to `COc1nc(NS(=O)(=O)c2c[nH]c3c(-c4ncc[nH]4)c(F)ccc23)nc(OC)c1OCC(F)F` [Example 45, N-[5-(2,2-difluoroethoxy)-4,6-dimethoxy-pyrimidin-2-yl]-6-fluoro-7-(1H-imidazol-2-yl)-1H-indole-3-sulfonamide], the pIC50 was 7.30.
As for `COc1nc(NS(=O)(=O)c2c[nH]c3c(-c4nccnc4Cl)c(Cl)ccc23)nc(OC)c1CC(F)F` [Example 65, 6-chloro-7-(3-chloropyrazin-2-yl)-N-[5-(2,2-difluoroethyl)-4,6-dimethoxy-pyrimidin-2-yl]-1H-indole-3-sulfonamide], the pIC50 was 7.41.
In the case of `COc1nc(NS(=O)(=O)c2c[nH]c3c(-c4cncc(C)n4)c(Cl)ccc23)nc(OC)c1OCC(F)F` [Example 88, 6-chloro-N-[5-(2,2-difluoroethoxy)-4,6-dimethoxy-pyrimidin-2-yl]-7-(6-methylpyrazin-2-yl)-1H-indole-3-sulfonamide], the pIC50 is 7.57.
With `COc1nc(NS(=O)(=O)c2c[nH]c3c(-c4cnc(C)cn4)c(Cl)ccc23)nc(OC)c1CC(F)F` [Example 82, 6-chloro-N-[5-(2,2-difluoroethyl)-4,6-dimethoxy-pyrimidin-2-yl]-7-(5-methylpyrazin-2-yl)-1H-indole-3-sulfonamide], the pIC50 is 7.33.
On to `COc1nc(NS(=O)(=O)c2c[nH]c3c(-c4ncccc4C)c(Cl)ccc23)nc(OC)c1OCC(F)F` [Example 100, 6-chloro-N-[5-(2,2-difluoroethoxy)-4,6-dimethoxy-pyrimidin-2-yl]-7-(3-methyl-2-pyridyl)-1H-indole-3-sulfonamide], for which the negative-log IC50 (pIC50) was 7.40.
As to `COc1nc(NS(=O)(=O)c2c[nH]c3c(-c4nccnc4C)cccc23)nc(OC)c1OCC(F)F` [Example 54, N-[5-(2,2-difluoroethoxy)-4,6-dimethoxy-pyrimidin-2-yl]-7-(3-methylpyrazin-2-yl)-1H-indole-3-sulfonamide], the negative logarithm of the IC50 (pIC50) was 7.19.
As for `COc1nc(NS(=O)(=O)c2c[nH]c3c(-c4cnn(C)n4)c(Cl)ccc23)nc(OC)c1OC(F)F` [Example 107, 6-chloro-N-[5-(difluoromethoxy)-4,6-dimethoxy-pyrimidin-2-yl]-7-(2-methyltriazol-4-yl)-1H-indole-3-sulfonamide], the pIC50 was 7.12.
In the case of `COc1nc(NS(=O)(=O)c2c[nH]c3c(-c4ccncn4)c(Cl)ccc23)nc(OC)c1CC(F)F` [Example 76, 6-chloro-N-[5-(2,2-difluoroethyl)-4,6-dimethoxy-pyrimidin-2-yl]-7-(4-pyrimidyl)-1H-indole-3-sulfonamide] it was 7.68; in that of `COc1nc(NS(=O)(=O)c2c[nH]c3c(-c4cnccn4)c(Cl)ccc23)nc(OC)c1CC(F)F` [Example 15, 6-chloro-N-[5-(2,2-difluoroethyl)-4,6-dimethoxy-pyrimidin-2-yl]-7-pyrazin-2-yl-1H-indole-3-sulfonamide], 7.57; in that of `COc1nc(NS(=O)(=O)c2c[nH]c3c(-c4cnoc4)c(Cl)ccc23)nc(OC)c1OC(F)F` [Example 119, 6-chloro-N-[5-(difluoromethoxy)-4,6-dimethoxy-pyrimidin-2-yl]-7-isoxazol-4-yl-1H-indole-3-sulfonamide], 6.89.
In the case of `COc1nc(NS(=O)(=O)c2c[nH]c3c(-c4ncccn4)c(F)ccc23)nc(OC)c1OCCF` [Example 28, 6-fluoro-N-[5-(2-fluoroethoxy)-4,6-dimethoxy-pyrimidin-2-yl]-7-(2-pyrimidyl)-1H-indole-3-sulfonamide] it was 6.51; in that of `COc1nc(NS(=O)(=O)c2c[nH]c3c(-c4nccnc4F)c(Cl)ccc23)nc(OC)c1CC(F)F` [Example 97, 6-chloro-N-[5-(2,2-difluoroethyl)-4,6-dimethoxy-pyrimidin-2-yl]-7-(3-fluoropyrazin-2-yl)-1H-indole-3-sulfonamide], 7.47.
In the case of `COc1nc(NS(=O)(=O)c2c[nH]c3c(-c4ncccn4)cccc23)nc(OC)c1CC(F)F` [Example 17, N-[5-(2,2-difluoroethyl)-4,6-dimethoxy-pyrimidin-2-yl]-7-(2-pyrimidyl)-1H-indole-3-sulfonamide] it was 6.09.

Usually pIC50 stands for the negative decadic logarithm of the IC50, by convention in mol/L.
